# According to patent US5750696A, “Dioxacycloalkane compound having renin-inhibitory activity” (Japan Tobacco Inc., priority 1992, dated 1998):
# How the values were obtained:
# [1] = target: T1, renin activity in human plasma (Homo sapiens, UniProt P00797); assay: Inhibitory action on renin activity in human plasma; assay type: biochemical; settings: 37° C., 1 hour, angiotensin I by radio immunoassay
# T1 construct: Human plasma (200 μl); from tissue; host or cells: human plasma
# T1 sequence (P00797 67-406): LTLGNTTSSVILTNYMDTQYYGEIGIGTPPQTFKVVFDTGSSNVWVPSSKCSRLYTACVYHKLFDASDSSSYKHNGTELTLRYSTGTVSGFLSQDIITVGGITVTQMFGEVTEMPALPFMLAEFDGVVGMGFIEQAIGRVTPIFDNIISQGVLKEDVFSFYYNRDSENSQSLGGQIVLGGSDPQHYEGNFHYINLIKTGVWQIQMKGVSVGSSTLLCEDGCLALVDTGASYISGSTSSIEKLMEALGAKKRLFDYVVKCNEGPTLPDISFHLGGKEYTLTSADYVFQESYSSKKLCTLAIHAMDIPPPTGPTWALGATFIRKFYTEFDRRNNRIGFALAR
# Procedure: (§1) In the following, the test results of the inhibitory action of the dioxacycloalkane compound of the above-mentioned formula [1] of the present invention, on the renin activity in human plasma and the hypotensive action on nonanesthetized marmosets under salt intake control are shown.
# Inhibitory action on renin activity in human plasma
# Human plasma (200 μl), a pH adjusting solution (20 μl), PMSF (10 μl), and a solution (10 μl) of the dioxacycloalkane compound of the present invention in dimethyl sulfoxide or dimethyl sulfoxide (10 μl ) as a control were placed in plastic tubes for RIA. Two sets of these were prepared and one set of them was incubated at 37° C. for 1 hour and the other was incubated at 4° C. for 1 hour.
# After incubation, the amount of angiotensin I was quantitatively assayed by the radio immunoassay method. The renin activity in plasma was calculated by subtracting the amount of angiotensin I in the reaction mixture incubated at 4° C. from that in the reaction mixture incubated at 37° C. Percent inhibitory activity was calculated from the following formula [formula] The molar concentration necessary for 50% inhibition of activity (IC5 0) was determined from the inhibitory activity value obtained by the above calculating formula. [RENIN RIABEADS KIT (Dinabot Ltd.) was used for the measurement.]
# [2] = tested on: non-anesthetized marmosets; assay: Hypotensive action on non-anesthetized marmosets under salt intake control; assay type: in vivo; settings: 10 mg/kg, po, low salt diet, tail-cuff method, relative to value before administration
# From the text: as §1
# Hypotensive action on non-anesthetized marmosets under salt intake control
# Non-anesthetized marmosets (weighing 310-370 g) raised on a low salt diet (containing 0.02% salt, 1/10 of the normal diet) for a week were orally administered with the compound (10 mg/kg) of Example 1 dissolved in 0.1 M citric acid, at the ratio of 2 ml/kg. The blood pressure was measured with the lapse of time before and after the administration by the tail-cuff method, and the hypotensive action was calculated in percentage relative to the value measured before the administration.
IC50 [1] [nM],SMILES,further results
13,"CN(C(=O)[C@H](Cc1ccccc1)NC(=O)N1CCCCC1)[C@@H](Cc1c[nH]cn1)C(=O)N[C@@H](CC1CCCCC1)[C@@H](O)C[C@@H]1OC(C)(C)OC1(C)C [Example 11, (4S)-4-[(2S,3S)-4-cyclohexyl-2-hydroxy-3-[[Nα-methyl-N α-(N-piperidinocarbonyl-L-phenylalanyl)-L-histidyl]amino]butyl]-2,2,5,5-tetramethyl-1,3-dioxolane]",
21,"CN(C(=O)[C@H](Cc1ccccc1)NC(=O)N1CCCCC1)[C@@H](Cc1c[nH]cn1)C(=O)N[C@@H](CC1CCCCC1)[C@@H](O)C[C@H]1OCOC1(C)C [Example 2, (4R)-4-[(2S,3S)-4-cyclohexyl-2-hydroxy-3-[[Nα-methyl-N α-(N-piperidinocarbonyl-L-phenylalanyl)-L-histidyl]amino]butyl]-5,5-dimethyl-1,3-dioxolane]",
7.8,"CCN(CC)C(=O)N[C@@H](Cc1ccccc1)C(=O)N(C)[C@@H](Cc1c[nH]cn1)C(=O)N[C@@H](CC1CCCCC1)[C@@H](O)C[C@@H]1OCOC1(C)C [Example 10, (4S)-4-[(2S,3S)-4-cyclohexyl-2-hydroxy-3-[[Nα-methyl-N α-[N-(diethylamino)carbonyl-L-phenylalanyl]-L-histidyl]amino]butyl]-5,5-dimethyl-1,3-dioxolane]",
3,"CC1CCN(C(=O)N[C@@H](Cc2ccccc2)C(=O)N(C)[C@@H](Cc2c[nH]cn2)C(=O)N[C@@H](CC2CCCCC2)[C@@H](O)C[C@@H]2OCOC2(C)C)CC1 [Example 9, (4S)-4-[(2S,3S)-4-cyclohexyl-2-hydroxy-3-[[Nα-methyl-N α-[N-(4-methylpiperidino)carbonyl-L-phenylalanyl]-L-histidyl]-amino]butyl]-5,5-dimethyl-1,3-dioxolane]",
1.8,"CC1(C)OCO[C@H]1C[C@H](O)[C@H](CC1CCCCC1)NC(=O)[C@H](Cc1c[nH]cn1)NC(=O)[C@H](Cc1ccccc1)NC(=O)N1CCCCC1 [Example 4, (4S)-4-[(2S,3S)-4-cyclohexyl-2-hydroxy-3-[[N α-(N-piperidino-carbonyl-L-phenylalanyl)-L-histidyl]amino]butyl]-5,5-dimethyl-1,3-dioxolane]",
7,"CC1(C)OCO[C@H]1C[C@H](O)[C@H](CC1CCCCC1)NC(=O)[C@H](Cc1c[nH]cn1)NC(=O)[C@H](Cc1ccccc1)OC(=O)N1CCCCC1 [Example 3, (4S)-4-[(2S,3S)-4-cyclohexyl-2-hydroxy-3-[[Nα-[(2S)-3-phenyl-2-piperidinocarbonyloxypropionyl]-L-histidyl]amino]butyl]-5,5-dimethyl-1,3-dioxolane]",
14,"CSC[C@H](NC(=O)[C@H](Cc1ccccc1)OC(=O)N1CCN(C)CC1)C(=O)N[C@@H](CC1CCCCC1)[C@@H](O)C[C@@H]1OCOC1(C)C [Example 5, (4S)-4-[(2S,3S)-4-cyclohexyl-2-hydroxy-3-[[S-methyl-N-[(2S)-3-phenyl-2-(4-methylpiperazinyl)carbonyloxypropionyl]-L-cysteinyl]amino]butyl]-5,5-dimethyl-1,3-dioxolane]",
11,"CN(C(=O)[C@H](Cc1ccccc1)NS(=O)(=O)N1CCCCC1)[C@@H](Cc1c[nH]cn1)C(=O)N[C@@H](CC1CCCCC1)[C@@H](O)C[C@@H]1OCOC1(C)C [Example 6, (4S)-4-[(2S,3S)-4-cyclohexyl-2-hydroxy-3-[[Nα-methyl-N α-(N-piperidinosulfonyl-L-phenylalanyl)-L-histidyl]amino]butyl]-5,5-dimethyl-1,3-dioxolane]",
4,"CN(C(=O)[C@H](Cc1ccccc1)NC(=O)N1CCCCC1)[C@@H](Cc1c[nH]cn1)C(=O)N[C@@H](CC1CCCCC1)[C@@H](O)C[C@@H]1OC(c2ccccc2)OC1(C)C (stereo partly drawn) [Example 12, (4S)-4-[(2S,3S)-4-cyclohexyl-2-hydroxy-3-[[Nα-methyl-N α-(N-piperidinocarbonyl-L-phenylalanyl)-L-histidyl]amino]butyl]-5,5-dimethyl-2-phenyl-1,3-dioxolane]",

SMILES,IC50 [1] [nM],further results
"CN(C(=O)[C@H](Cc1ccccc1)NC(=O)N1CCCCC1)[C@@H](Cc1c[nH]cn1)C(=O)N[C@@H](CC1CCCCC1)[C@@H](O)C[C@@H]1OCOC1(C)C [Example 1, (4S)-4-[(2S,3S)-4-cyclohexyl-2-hydroxy-3-[[Nα-methyl-N α-(N-piperidinocarbonyl-L-phenylalanyl)-L-histidyl]amino]butyl]-5,5-dimethyl-1,3-dioxolane]",0.9,Hypotensive action (%) 0.5 hr later ([2]; 0.5 hr later): 10%; Hypotensive action (%) 1 hr later ([2]; 1 hr later): 12%; Hypotensive action (%) 3 hrs later ([2]; 3 hrs later): 10%; Hypotensive action (%) 5 hrs later ([2]; 5 hrs later): 10%; Hypotensive action (%) 7 hrs later ([2]; 7 hrs later): 3%
